In US20250326771A1, “PIPERAZINE DERIVATIVES USEFUL IN HIV THERAPY” (VIIV HEALTHCARE COMPANY, priority 2022, published 2025):
Like-named read-outs stand apart in the source and are kept apart here.

How the values were obtained:
cIAP1-BIR3 = cIAP1-BIR3 (Homo sapiens (Human), UniProt Q13490); experiment: BIR binding assay (FRET competition), cIAP1 BIR3; details: for cIAP1 BIR3 vs BIR2 separation window: fold separation (FS) for cIAP1
In short: (§1)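 Each domain is run separately at its own level: 50 nM cIAP1-BIR3, 100 nM XIAP-BIR3, 325 nM for cIAP1-BIR2 or cIAP2-BIR2. Probe is a 200 nM fluorescent SMAC peptide, and the value is IC50 from FRET competition.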

cIAP2-BIR3 = cIAP2-BIR3 (Homo sapiens (Human), UniProt Q13489); experiment: BIR binding assay (FRET competition), cIAP2 BIR3; details: for cIAP2 BIR3 vs BIR2 separation window: fold separation (FS) for cIAP2
[1] = test system: Jurkat HIV-luciferase clones; experiment: Jurkat latency reversal assay; assay type: cell-based; details: Homo sapiens, 48 h; Jurkat latency reversal assay potency; read-out: Jurkat pEC50 (converted)
In short: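 Luminescence read-out: Steady-Glo after 48 h, 37° C, on mixed Jurkat HIV-luc clones (C16, 115, N6; 5,000 cells/well total). Cpd 14-pt 3-fold dilutions, duplicate, top 10 μM, 0.5% DMSO. EC50 + max % activation vs vehicle via 4-parameter fit.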

XIAP-BIR2 = XIAP-BIR2 (Homo sapiens (Human), UniProt P98170); experiment: BIR binding assay (FRET competition), XIAP BIR2; details: read-out: XIAP BIR2 (pIC50) (converted)
Description: The BIR domain binding assays are FRET based competition assays that utilize His-tagged versions of each of the BIR2 and BIR3 domains from cIAP1, cIAP2, and XIAP (each domain assayed separately) each at a custom optimal concentration and a probe, 200 nM SMAC/DIABLO peptide AVPIAQKSE labelled with AlexaFluor647 (part #crb 1110326h, Discovery Peptides). The assay is conducted in 50 mM HEPES, […], 1 mM CHAPS, 5% Glycerol, 1 mM DTT, in dI water with a final pH of 7.4 and final volume of 20 uL. Final protein domain concentrations are: 50 nM cIAP1-BIR3 (Part #APT-11-370 Reaction Biology), 100 nM XIAP-BIR3 (Part #APT-11-351 Reaction Biology), 200 nM XIAP-BIR2 (Part #APT-11-470 Reaction Biology), 325 nM cIAP2-BIR2 (Part #APT-11-489 Reaction Biology), 50 nM cIAP2-BIR3 (Part #APT-11-372 Reaction Biology), 325 nM cIAP1-BIR2 (Part #APT-11-487 Reaction Biology). Compounds were plated using a HP Tecan D300 printer in a final total volume of 202 nl and DMSO concentration normalized across the 15-point, 3-fold dilution series. Peptide and probe were prepared at 2× relative to the concentrations above in binding buffer, 10 uL added to the prepared compound plates, and incubated for 60 minutes. LANCE Eu-W1024 (part #AD0401 Perkin Elmer #, vendor) was prepared at 2× concentration in binding buffer for final concentration of 2 nM, 10 uL added to each well, and plates incubated for 30 minutes. Plates were read on an ENVISION multifunction plate reader with […] laser excitation to obtain the 615 nm/665 nm emission ratio as indicative of probe:protein proximity. Data was analyzed using GraphPad PRISM and curves fit using log(inhibitor) vs. response—Variable slope (four […] method to obtain IC50 and pIC50 values.

cIAP2-BIR2 = cIAP2-BIR2 (Homo sapiens (Human), UniProt Q13489); experiment: BIR binding assay (FRET competition), cIAP2 BIR2
In short: as §1

XIAP-BIR3 = XIAP-BIR3 (Homo sapiens (Human), UniProt P98170); experiment: BIR binding assay (FRET competition), XIAP BIR3; details: for XIAP BIR3 vs BIR2 separation window: fold separation (FS) for XIAP
In short: as §1

cIAP1-BIR2 = cIAP1-BIR2 (Homo sapiens (Human), UniProt Q13490); experiment: BIR binding assay (FRET competition), cIAP1 BIR2
In short: as §1

Sequence of cIAP1-BIR2 (Q13490 173-257): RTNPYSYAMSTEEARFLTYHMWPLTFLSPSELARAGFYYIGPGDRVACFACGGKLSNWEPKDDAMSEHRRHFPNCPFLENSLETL
Sequence of cIAP1-BIR3 (Q13490 253-363): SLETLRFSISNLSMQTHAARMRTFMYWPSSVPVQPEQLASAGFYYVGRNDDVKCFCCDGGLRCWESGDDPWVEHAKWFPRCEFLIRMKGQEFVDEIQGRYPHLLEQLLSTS
Sequence of XIAP-BIR3 (P98170 241-356): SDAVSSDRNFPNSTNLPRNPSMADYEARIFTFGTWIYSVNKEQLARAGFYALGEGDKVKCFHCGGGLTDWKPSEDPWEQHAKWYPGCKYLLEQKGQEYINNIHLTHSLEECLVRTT
Sequence of XIAP-BIR2 (P98170 124-240): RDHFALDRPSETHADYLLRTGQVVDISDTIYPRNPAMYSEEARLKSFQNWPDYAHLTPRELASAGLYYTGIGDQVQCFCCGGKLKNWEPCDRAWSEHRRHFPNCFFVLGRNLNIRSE
Sequence of cIAP2-BIR3 (Q13489 238-349): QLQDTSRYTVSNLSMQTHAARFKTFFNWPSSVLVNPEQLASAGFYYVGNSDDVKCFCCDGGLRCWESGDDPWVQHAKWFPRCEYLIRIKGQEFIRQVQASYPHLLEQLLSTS
Sequence of cIAP2-BIR2 (Q13489 158-242): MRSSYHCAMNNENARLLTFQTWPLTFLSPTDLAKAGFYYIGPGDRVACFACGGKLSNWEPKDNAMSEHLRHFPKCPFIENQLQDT

| SMILES | IC50 (cIAP1-BIR3) | cIAP1 BIR3 vs BIR2 separation window (cIAP1-BIR3) | IC50 (cIAP2-BIR3) | cIAP2 BIR3 vs BIR2 separation window (cIAP2-BIR3) | EC50 [1] | IC50 (XIAP-BIR2; FRET competition) | IC50 (cIAP2-BIR2) | IC50 (XIAP-BIR3) | XIAP BIR3 vs BIR2 separation window (XIAP-BIR3) | IC50 (cIAP1-BIR2) | IC50 (XIAP-BIR2; FRET competition binding) |
| --- | --- | --- | --- | --- | --- | --- | --- | --- | --- | --- | --- |
| C[C@@H]1CN(CC(=O)N2CC(C)(C)c3[nH]c(=O)c(Cc4ccc(F)cc4)cc32)[C@@H](CN2CCO[C@H](C(=O)NCCOCCNC(=O)[C@@H]3CN(C[C@H]4CN[C@H](C)CN4CC(=O)N4CC(C)(C)c5[nH]c(=O)c(Cc6ccc(F)cc6)cc54)CCO3)C2)CN1 [Compound 138, (2S,2′S)-N,N′-(oxybis(ethane-2,1-diyl))bis(4-(((2R,5R)-1-(2-(6-(4-fluorobenzyl)-3,3-dimethyl-5-oxo-2,3,4,5-tetrahydro-1H-pyrrolo[3,2-b]pyridin-1-yl)-2-oxoethyl)-5-methylpiperazin-2-yl)methyl)morpholine-2-carboxamide)] | 1.38 to 7.94 nM | +++ (10,000>FS>1,000) | 1.38 to 7.94 nM | +++ (10,000>FS>1,000) | 63.1 to 316 nM | 10000 to 51300 nM | 1000 to 3160 nM | 7.94 to 15.8 nM | ++++ (FS>10,000) | 1000 to 3160 nM | – |
| C[C@@H]1CN(CC(=O)N2CC(C)(C)c3[nH]c(=O)c(Cc4ccc(F)cc4)cc32)[C@@H](CN2CCO[C@H](C(=O)NC3CCN(C(=O)[C@@H]4CN(C[C@H]5CN[C@H](C)CN5CC(=O)N5CC(C)(C)c6[nH]c(=O)c(Cc7ccc(F)cc7)cc65)CCO4)CC3)C2)CN1 [Example 129, (S)-4-(((2R,5R)-1-(2-(6-(4-fluorobenzyl)-3,3-dimethyl-5-oxo-2,3,4,5-tetrahydro-1H-pyrrolo[3,2-b]pyridin-1-yl)-2-oxoethyl)-5-methylpiperazin-2-yl)methyl)-N-(1-((S)-4-(((2R,5R)-1-(2-(6-(4-fluorobenzyl)-3,3-dimethyl-5-oxo-2,3,4,5-tetrahydro-1H-pyrrolo[3,2-b]pyridin-1-yl)-2-oxoethyl)-5-methylpiperazin-2-yl)methyl)morpholine-2-carbonyl)piperidin-4-yl)morpholine-2-carboxamide] | 7.94 to 15.8 nM | ++ (1,000>FS>100) | 7.94 to 15.8 nM | +++ (10,000>FS>1,000) | 0.49 to 12.6 nM | – | 1000 to 3160 nM | 15.8 to 31.6 nM | ++++ (FS>10,000) | 22.4 to 1000 nM | 10000 to 51300 nM |
| C[C@@H]1CN(CC(=O)N2CC(C)(C)c3[nH]c(=O)c(Cc4ccc(F)cc4)cc32)[C@@H](CN2CCC(CNC(=O)Cc3ccc(CC(=O)NCC4CCN(C[C@H]5CN[C@H](C)CN5CC(=O)N5CC(C)(C)c6[nH]c(=O)c(Cc7ccc(F)cc7)cc65)CC4)cc3)CC2)CN1 [Example 102, 2,2′-(1,4-phenylene)bis(N-((1-(((2R,5R)-1-(2-(6-(4-fluorobenzyl)-3,3-dimethyl-5-oxo-2,3,4,5-tetrahydro-1H-pyrrolo[3,2-b]pyridin-1-yl)-2-oxoethyl)-5-methylpiperazin-2-yl)methyl)piperidin-4-yl)methyl)acetamide)] | 7.94 to 15.8 nM | +++ (10,000>FS>1,000) | 7.94 to 15.8 nM | ++++ (FS>10,000) | 63.1 to 316 nM | – | 3160 to 10000 nM | 7.94 to 15.8 nM | ++++ (FS>10,000) | 3160 to 10000 nM | 10000 to 51300 nM |
| C[C@@H]1CN(CC(=O)N2CC(C)(C)c3[nH]c(=O)c(Cc4ccc(F)cc4)cc32)[C@@H](CN2CCO[C@H](COc3cccc(OC[C@@H]4CN(C[C@H]5CN[C@H](C)CN5CC(=O)N5CC(C)(C)c6[nH]c(=O)c(Cc7ccc(F)cc7)cc65)CCO4)c3Cl)C2)CN1 [Example 88, 1,1′-(2,2′-((3R,3′R,6R,6′R)-(((2S,2'S)-(((2-chloro-1,3-phenylene)bis(oxy))bis(methylene))bis(morpholine-2,4-diyl))bis(methylene))bis(3-methylpiperazine-6,1-diyl))bis(acetyl))bis(6-(4-fluorobenzyl)-3,3-dimethyl-1,2,3,4-tetrahydro-5H-pyrrolo[3,2-b]pyridin-5-one)] | 7.94 to 15.8 nM | +++ (10,000>FS>1,000) | 7.94 to 15.8 nM | +++ (10,000>FS>1,000) | 0.49 to 12.6 nM | – | 1000 to 3160 nM | 7.94 to 15.8 nM | ++++ (FS>10,000) | 1000 to 3160 nM | 10000 to 51300 nM |
| C[C@@H]1CN(CC(=O)N2CC(C)(C)c3[nH]c(=O)c(Cc4ccc(F)cc4)cc32)[C@@H](CN2CCO[C@@H](COc3cccc(OC[C@H]4CN(C[C@H]5CN[C@H](C)CN5CC(=O)N5CC(C)(C)c6[nH]c(=O)c(Cc7ccc(F)cc7)cc65)CCO4)c3)C2)CN1 [Example 112, 1,1′-(2,2′-((3R,3′R,6R,6′R)-(((2R,2′R)-((1,3-phenylenebis(oxy))bis(methylene))bis(morpholine-2,4-diyl))bis(methylene))bis(3-methylpiperazine-6,1-diyl))bis(acetyl))bis(6-(4-fluorobenzyl)-3,3-dimethyl-1,2,3,4-tetrahydro-5H-pyrrolo[3,2-b]pyridin-5-one)] | 7.94 to 15.8 nM | +++ (10,000>FS>1,000) | 7.94 to 15.8 nM | +++ (10,000>FS>1,000) | 12.6 to 63.1 nM | – | 1000 to 3160 nM | 15.8 to 31.6 nM | +++ (10,000>FS>1,000) | 3160 to 10000 nM | 10000 to 51300 nM |
| C[C@@H]1CN(CC(=O)N2CC(C)(C)c3[nH]c(=O)c(Cc4ccc(F)cc4)cc32)[C@@H](CN2CCN(C(=O)COCCOCCOCC(=O)N3CCN(C[C@H]4CN[C@H](C)CN4CC(=O)N4CC(C)(C)c5[nH]c(=O)c(Cc6ccc(F)cc6)cc54)[C@H](C)C3)C[C@H]2C)CN1 (stereo in doubt) [Example 6, 1,1′-(2,2′-((3R,3′R,6R,6′R)-(((2R,2′R)-(2,2′-((oxybis(ethane-2,1-diyl))bis(oxy))bis(acetyl))bis(2-methylpiperazine-4,1-diyl))bis(methylene))bis(3-methylpiperazine-6,1-diyl))bis(acetyl))bis(6-(4-fluorobenzyl)-3,3-dimethyl-1,2,3,4-tetrahydro-5H-pyrrolo[3,2-b]pyridin-5-one)] | 1.38 to 7.94 nM | +++ (10,000>FS>1,000) | 1.38 to 7.94 nM | +++ (10,000>FS>1,000) | 63.1 to 316 nM | – | 22.4 to 1000 nM | 1.38 to 7.94 nM | ++++ (FS>10,000) | 22.4 to 1000 nM | 10000 to 51300 nM |
| C[C@@H]1CN(CC(=O)N2CC(C)(C)c3[nH]c(=O)c(Cc4ccc(F)cc4)cc32)[C@@H](CN2CCO[C@H](C(=O)NCC(=O)N3CCN(C[C@H]4CN[C@H](C)CN4CC(=O)N4CC(C)(C)c5[nH]c(=O)c(Cc6ccc(F)cc6)cc54)[C@H](C)C3)C2)CN1 [Compound 159, (S)-4-(((2R,5R)-1-(2-(6-(4-fluorobenzyl)-3,3-dimethyl-5-oxo-2,3,4,5-tetrahydro-1H-pyrrolo[3,2-b]pyridin-1-yl)-2-oxoethyl)-5-methylpiperazin-2-yl)methyl)-N-(2-((R)-4-(((2R,5R)-1-(2-(6-(4-fluorobenzyl)-3,3-dimethyl-5-oxo-2,3,4,5-tetrahydro-1H-pyrrolo[3,2-b]pyridin-1-yl)-2-oxoethyl)-5-methylpiperazin-2-yl)methyl)-3-methylpiperazin-1-yl)-2-oxoethyl)morpholine-2-carboxamide] | 7.94 to 15.8 nM | ++ (1,000>FS>100) | 1.38 to 7.94 nM | +++ (10,000>FS>1,000) | 63.1 to 316 nM | 10000 to 51300 nM | 22.4 to 1000 nM | 7.94 to 15.8 nM | ++++ (FS>10,000) | 22.4 to 1000 nM | – |
